Legend:
Type in all cases: in vivo
[1] = test system: Echinochloa crus-galli; assay: Control experiment, test in post-emergence stage; design: key: Level 10: completely dead; Level 9: above 90% growth inhibition rate; Level 8: above 80% growth inhibition rate; Level 7: above 70% growth inhibition rate; Level 6: above 60% growth inhibition rate; Level 5: above 50% growth inhibition rate; Level 4: above 30% growth inhibition rate; Level 3: above 20% growth inhibition rate; Level 2: above 10% growth inhibition rate; Level 1: above 1-10% growth inhibition rate; Level 0: no effect; conditions: 5-6 leaf stage, 15 g/ha, observe time 25 day
Description: (§1) Test in post-emergence stage: seeds of monocotyledonous weeds and corn were put into a plastic pot loaded with soil, covered with 0.5-2 cm soil, and allowed to grow in good greenhouse environment. The test plants were treated at 5-6 leaf stage 4 weeks after sowing. The test compounds of the present invention were dissolved with acetone respectively, then added with tween 80, diluted by a certain amount of water to reach a certain concentration. The solution was sprayed to the plants by a spray tower. The test application rate was 15 g/ha and the observe time was 25 day.

[2] = test system: Digitaria sanguinalis; assay: Control experiment, test in post-emergence stage; design: key: Level 10: completely dead; Level 9: above 90% growth inhibition rate; Level 8: above 80% growth inhibition rate; Level 7: above 70% growth inhibition rate; Level 6: above 60% growth inhibition rate; Level 5: above 50% growth inhibition rate; Level 4: above 30% growth inhibition rate; Level 3: above 20% growth inhibition rate; Level 2: above 10% growth inhibition rate; Level 1: above 1-10% growth inhibition rate; Level 0: no effect; conditions: 5-6 leaf stage, 15 g/ha, observe time 25 day
Description: as §1

[3] = test system: Setaria viridis; assay: Control experiment, test in post-emergence stage; design: key: Level 10: completely dead; Level 9: above 90% growth inhibition rate; Level 8: above 80% growth inhibition rate; Level 7: above 70% growth inhibition rate; Level 6: above 60% growth inhibition rate; Level 5: above 50% growth inhibition rate; Level 4: above 30% growth inhibition rate; Level 3: above 20% growth inhibition rate; Level 2: above 10% growth inhibition rate; Level 1: above 1-10% growth inhibition rate; Level 0: no effect; conditions: 5-6 leaf stage, 15 g/ha, observe time 25 day
Description: as §1

[4] = test system: Monocotyledonous and dicotyledonous weed; assay: Post-emergence test experiment, weed control effect (Table 2); design: key to weed control effect, Setaria viridis (level) / weed control effect, Rorippa indica (level) / weed control effect, Abutilon theophrasti (level) / weed control effect, Echinochloa crus-galli (level) / weed control effect, Digitaria sanguinalis (level): Level 10: completely dead; Level 9: above 90% growth inhibition rate; Level 8: above 80% growth inhibition rate; Level 7: above 70% growth inhibition rate; Level 6: above 60% growth inhibition rate; Level 5: above 50% growth inhibition rate; Level 4: above 30% growth inhibition rate; Level 3: above 20% growth inhibition rate; Level 2: above 10% growth inhibition rate; Level 1: above 1-10% growth inhibition rate; Level 0: no effect; conditions: 3 weeks after spraying, greenhouse
Method in brief: (§2)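 Weed and crop seeds (wheat, corn, rice, soybean, cotton, oilseed, millet, sorghum) grown in soil in greenhouse; sprayed at 2-3 leaf stage, 2-3 weeks after sowing, with compound in acetone/Tween 80/water. Effects assessed after 3 weeks further greenhouse culture.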

[5] = test system: Corn; assay: Control experiment, test in post-emergence stage, crop safety; design: key: Level 10: completely dead; Level 9: above 90% growth inhibition rate; Level 8: above 80% growth inhibition rate; Level 7: above 70% growth inhibition rate; Level 6: above 60% growth inhibition rate; Level 5: above 50% growth inhibition rate; Level 4: above 30% growth inhibition rate; Level 3: above 20% growth inhibition rate; Level 2: above 10% growth inhibition rate; Level 1: above 1-10% growth inhibition rate; Level 0: no effect; conditions: 5-6 leaf stage, 15 g/ha, observe time 25 day
Description: as §1

[6] = test system: main crop (wheat, corn, rice, soybean, cotton, oilseed, millet and sorghum); assay: Post-emergence test experiment, main crops (Table 2); design: key: Level 10: completely dead; Level 9: above 90% growth inhibition rate; Level 8: above 80% growth inhibition rate; Level 7: above 70% growth inhibition rate; Level 6: above 60% growth inhibition rate; Level 5: above 50% growth inhibition rate; Level 4: above 30% growth inhibition rate; Level 3: above 20% growth inhibition rate; Level 2: above 10% growth inhibition rate; Level 1: above 1-10% growth inhibition rate; Level 0: no effect; conditions: 3 weeks after spraying, greenhouse
Method in brief: as §2

[7] = test system: Echinochloa crus-galli, Scirpus juncoides and Monochoria vaginalis; assay: Resistance tests on the collected weed seeds; conditions: common rate; seeds collected from Heilongjing and Jiangsu Province of China
Text: The seeds of Echinochloa crus-galli, Scirpus juncoides and Monochoria vaginalis were collected from Heilongjing and Jiangsu Province of China.

SMILES: COCc1c(S(C)(=O)=O)ccc(C(=O)c2c(C)nn(C)c2OC(=O)c2cn(C)nc2C)c1Cl [Compound 26]
- Echinochloa crus-galli (activity level) [1]: 10
- Digitaria sanguinalis (activity level) [2]: 10
- Setaria viridis (activity level) [3]: 10
- weed control effect, Abutilon theophrasti (level) ([4]; 30 g/ha): 7 (Level 7: above 70% growth inhibition rate)
- weed control effect, Bidens pilosa (level) ([4]; 30 g/ha): 8 (Level 8: above 80% growth inhibition rate)
- weed control effect, Digitaria sanguinalis (level) ([4]; 30 g/ha): 10
- weed control effect, Echinochloa crus-galli (level) ([4]; 30 g/ha): 10
- weed control effect, Rorippa indica (level) ([4]; 30 g/ha): 8 (Level 8: above 80% growth inhibition rate)
- weed control effect, Setaria viridis (level) ([4]; 30 g/ha): 10
- Corn (safety, activity level) [5]: 0
- effect on crop, corn (level) ([6]; 30 g/ha): 1 (Level 1: above 1-10% growth inhibition rate)
- effect on crop, rice (level) ([6]; 30 g/ha): 5 (Level 5: above 50% growth inhibition rate)
- effect on crop, wheat (level) ([6]; 30 g/ha): 0

SMILES: CCOC(=O)c1cnn(C)c1S(=O)(=O)NC(=O)Nc1nc(OC)cc(OC)n1 [pyrazosulfuron-ethyl]
- Resistance of the weeds to the herbicide [7]: resistant

SMILES: Cc1nn(C)cc1C(=O)Oc1c(C(=O)c2ccc(S(C)(=O)=O)c(COCC(F)(F)F)c2Cl)c(C)nn1C [Compound 29]
- Echinochloa crus-galli (activity level) [1]: 8 (Level 8: above 80% growth inhibition rate)
- Digitaria sanguinalis (activity level) [2]: 10
- Setaria viridis (activity level) [3]: 9 (Level 9: above 90% growth inhibition rate)
- weed control effect, Abutilon theophrasti (level) ([4]; 15 g/ha): 8 (Level 8: above 80% growth inhibition rate)
- weed control effect, Bidens pilosa (level) ([4]; 15 g/ha): 5 (Level 5: above 50% growth inhibition rate)
- weed control effect, Digitaria sanguinalis (level) ([4]; 15 g/ha): 9 (Level 9: above 90% growth inhibition rate)
- weed control effect, Echinochloa crus-galli (level) ([4]; 15 g/ha): 8 (Level 8: above 80% growth inhibition rate)
- weed control effect, Rorippa indica (level) ([4]; 15 g/ha): 4 (Level 4: above 30% growth inhibition rate)
- weed control effect, Setaria viridis (level) ([4]; 15 g/ha): 10
- Corn (safety, activity level) [5]: 0
- effect on crop, corn (level) ([6]; 15 g/ha): 0
- effect on crop, rice (level) ([6]; 15 g/ha): 3 (Level 3: above 20% growth inhibition rate)
- effect on crop, wheat (level) ([6]; 15 g/ha): 0
